We go through 2 molecules from US5202324A, “Imidazopyridazines” (Takeda Chemical Industries, Ltd., priority 1989, dated 1993).

Structures are written as SMILES.

This experiment concerns bronchoconstriction induced by PAF. Put plainly: Effect on bronchoconstriction induced by platelet activating factor (PAF) in guinea pigs (Konzett-Rossler method). It is filed as in vivo, guinea pig (male Hartley). Particulars: Cavia porcellus, po, drug 30 mg/kg orally in 5% gum arabic solution 1 hour before PAF (1 μg/kg i.v.), recorded for 15 minutes. As for the experimental part:
Effect on Bronchoconstriction Induced by Platelet Activating Factor (PAF) in Guinea Pigs
Male Hartley guinea pigs (body weight 500 g) were used. The bronchoconstriction reaction in the guinea pig which has intravenously received PAF (1 μg/Kg) was measured by the Konzett-Rossler method. The trachea of the guinea pig with its back fixed was incised under anesthesia condition with urethane (intraperitoneal injection, 1.5 g/kg) and connected with an artificial respirator via a cannula. The branch of the tracheal cannula was connected with a transducer (7020 type, Ugobasile). Air was sent to the trachea at the volume of 3-7 ml/stroke, at the rate of 70 strokes/min. at load pressure of 10 cm H2 O to lung and overflowed air volume was recorded with Rectegraph (Recte-Hori-8s, Sanei Sokuki) via the transducer. After the guinea pig was treated with galamine (1 mg/kg, i.v.), PAF (1 μg/kg) dissolved in a physiological saline solution was administered to the guinea pig via a jugular venous cannula and the bronchoconstriction reaction induced thereby was recorded for 15 minutes. The drug (30 mg/kg) suspended in a 5% gum arabic solution was administered orally 1 hour before the injection of PAF.

Turning to `CNS(=O)(=O)CCCSc1ccc2nccn2n1` [Example 3], the inhibition in vivo (in general, the share of the control response that was lost under treatment) at 30 mg/kg worked out at 41%. As for `O=S(=O)(CCCSc1ccc2nccn2n1)NC1CC1` [Example 6], the inhibition in vivo at 30 mg/kg turned out to be 47%.
